# Data reported in patent US10512667B2, “Compositions and methods for treating conditions related to adrenocortical activity and/or excessive steroid production” (The Regents of the University of Michigan, priority 2017, dated 2019).
# Entries after “also recorded” stand apart in the source; their conditions may differ.
# Key:
# [1] = system: H295R cells; test: Visualization of cholesterol levels by filipin III binding; type: cell-based; conditions: for cholesterol level (filipin III binding), compound alone: serum-free medium containing apoA-I, 4 h
# Protocol: The cells were seeded in 96-well ibiTreat μ-Plates and allowed to adhere for 48 h prior to the start of each experiment. Cholesterol was detected in fixed cells by incubating with 100 μg/ml filipin III at 37 C for 2 h. […] Images were captured using either a 4× or a 60× objective. Cholesterol esterification was visualized by culturing the cells with 1 μM NBD-cholesterol for 2 h following incubation with the indicated compounds. […] Images were captured using either a 20× or a 60× objective.
# The medium was removed and immediately replaced with 100 μl of 4% paraformaldehyde and the cells were fixed at room temperature for 20 min. The cells were washed twice with 200 μl PBS. […] The fixed cells were incubated with filipin III at 37 C in the dark for 2 h.
# [2] = system: H295R cells; test: Cellular ATP level (CellTiter-Glo); conditions: for ATP level in combination with ATR-101 versus separately: compound together with ATR-101 at concentrations not cytotoxic separately; for ATP depletion at high concentrations of inhibitors of steroidogenesis: alone and in combination with ATR-101, 4 h; for ATP level, compound alone: serum-free medium;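 as to all read-outs here: ATP quantified by luminescence after lysing the cells in CellTiter-Glo reagent, with compound exposure at 37 °C under 5% CO2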
# Protocol: The ATP levels of cells were measured by lysis in CellTiter-Glo reagent (Promega), and measurement of the luminescence.
# After 48 h, 20-80 μl of medium was removed from each well and replaced with 20 μl of each compound diluted to 6× of the final concentration in the culture medium to produce a final volume of 120 μl. The cells were incubated at 37 C in 5% CO2 atmosphere for a time ranging from 15 min to 24 h. The medium was removed and immediately replaced with 50 μl of CellTiter-Glo luminescence cell viability assay reagent (Promega). The cells were lysed by agitation at room temperature for 20 min in the dark. The luminescence was measured using a SpectraMax M5 microplate reader (Molecular Devices) with a 0.5 s acquisition time. The luminescence (RLU) values for control cells ranged from 5000 to 20000 RLU in all experiments, and were scaled by a factor of 0.001 to plot all graphs.
# [3] = target: T1, MDR1 (Homo sapiens, UniProt P08183); test: Doxorubicin accumulation / clearance in H295R cells; type: cell-based; conditions: 25 μM doxorubicin, 20 μM compound, 2 h
# T1 construct: measured the accumulation of doxorubicin in H295R cells; endogenous in cells; host or cells: H295R adrenocortical carcinoma cells
# Protocol: The medium was removed and immediately replaced with 100 μl of fresh media and intracellular doxorubicin fluorescence was visualized by fluorescence microscopy using a 20× objective.
# [4] = system: H295R cells; test: Cholesterol efflux into serum-free medium with apoA1; type: cell-based; conditions: serum-free medium containing apoA-I
# Protocol: Cholesterol efflux was measured by replacing the culture medium with serum-free medium supplemented with 5 μg/ml apoA1 (Sigma) and the indicated compounds. After the indicated time, the serum-free medium was collected, and the cholesterol concentration was measured using the fluorometric enzyme-linked assay (Cayman Chemical).
# After 48 h, the medium was removed and replaced with 50 μl serum-free medium supplemented with 5 μg/mL apoA1. After the indicated time, the supernatant containing the effluxed cholesterol, was transferred to a new 96-well plate. A cholesterol detection reagent (Cayman Chemical) consisting of cholesterol assay buffer, cholesterol assay detector (10-acetyl-3,7-dihydroxyphenoxazine [ADHP]), horseradish peroxidase, cholesterol oxidase, and cholesterol esterase was added, and the reactions were incubated for 30 min at 37 C. The fluorescence intensities were measured using ex. […] 590 nm. The cholesterol concentrations were calculated by interpolation between the values produced by cholesterol standards that were analyzed in parallel.
# [5] = system: H295R cells; test: Cortisol secretion (indirect ELISA); type: cell-based
# Protocol: Cortisol secretion was measured by replacing the culture medium with fresh medium containing the indicated compounds. The medium was collected at the indicated times. The cortisol concentration in the medium was measured using indirect ELISA (Arbor Assays).
# After 48 h, the medium was removed and replaced with 50 μl of fresh medium. After the indicated incubation time, aliquots of the supernatant ranging from 0.5 to 10 μl were diluted in 50 μl of medium were used to measure the amount of cortisol secreted. Cortisol detection and quantification were performed by indirect ELISA according to the manufacturer's protocol (Arbor Assays #K003).
# [6] = H295R cells cultured with the compound together with ATR-101, 4 h
# [7] = H295R cells, serum-free medium containing apoA-I, together with ATR-101
molecule,measurement,setting,value
"CCN(CC)CCO[C@H]1CC[C@@]2(C)C(=CC[C@@H]3[C@@H]2CC[C@]2(C)C(=O)CC[C@@H]32)C1 [U18666A, 3β-(2-diethylaminoethoxy)-5-androsten-17-one]",cholesterol accumulation in combination with ATR-101 versus separately,"[1]; H295R cells, 20 μM ATR-101 with 5 μM benzamil (1 h) or 8 μM U18666A (serum-free)",greater than additive increase in cholesterol accumulation
same,ATP level in combination with ATR-101 versus separately,"[2]; H295R cells, 4 h",caused ATP depletion at concentrations that had no detectable effect on the ATP level separately
CC(=O)O[C@H]1CC[C@@]2(C)C(=CC[C@@H]3[C@@H]2CC[C@]2(C)C(c4cccnc4)=CC[C@@H]32)C1 [abiraterone acetate],ATP depletion at high concentrations of inhibitors of steroidogenesis,[2]; H295R cells,enhanced ATP depletion
NC(=NCc1ccccc1)NC(=O)c1nc(Cl)c(N)nc1N [benzamil],doxorubicin accumulation,[3],did not increase doxorubicin accumulation
CCCCC/C=C\C/C=C\CCCCCCCC(=O)O[C@H]1CC[C@@]2(C)C(=CC[C@H]3[C@@H]4CC[C@H]([C@H](C)CCCC(C)C)[C@@]4(C)CC[C@@H]32)C1 [cholesterol linoleate],effect on cholesterol accumulation caused by ATR-101,"[1]; H295R cells cultured with the compound together with ATR-101, 4 h or 24 h",did not prevent the accumulation of cellular cholesterol
same,effect on ATP depletion by ATR-101,"[2]; H295R cells cultured with the compound together with ATR-101, 24 h",did not prevent
COc1ccc(Cl)cc1C(=O)NCCc1ccc(S(=O)(=O)NC(=O)NC2CCCCC2)cc1 [glibenclamide],"cholesterol level (filipin III binding), compound alone",[1]; H295R cells,lack of cholesterol accumulation
same,"cholesterol level (filipin III binding), compound alone","[1]; H295R cells, listed as Glibenclamide",did not cause cholesterol accumulation
same,ATP level in combination with ATR-101 versus separately,"[2]; H295R cells, 4 h",did not cause a larger than additive reduction in the ATP levels; also recorded: did not increase the efficiency of ATP depletion
same,"ATP level, compound alone","[2]; H295R cells, 4 h",did not reduce the ATP level
same,"cholesterol efflux, compound alone",[4]; 4 h,blocked cholesterol efflux
CC(=O)N1CCN(c2ccc(OCC3COC(Cn4ccnc4)(c4ccc(Cl)cc4Cl)O3)cc2)CC1 (stereo not shown) [ketoconazole],ATP depletion at high concentrations of inhibitors of steroidogenesis,[2]; H295R cells,enhanced ATP depletion
CC(C)CCC[C@@H](C)[C@H]1CC[C@H]2[C@@H]3CCC4=CC(=NO)CC[C@]4(C)[C@H]3CC[C@]12C [olesoxime],effect on ATP depletion by ATR-101,[2]; [6],reduced ATP depletion by ATR-101
same,effect on ATP depletion by ATR-101,[2]; [7],reduced ATP depletion by ATR-101
same,effect on the inhibition of cholesterol efflux by ATR-101,"[4]; together with ATR-101, listed as Olesoxime",no detectable effect on the inhibition of cholesterol efflux
COc1ccc(CCN(C)CCCC(C#N)(c2ccc(OC)c(OC)c2)C(C)C)cc1OC (stereo not shown) [verapamil],"cholesterol level (filipin III binding), compound alone",[1]; H295R cells,increased the level of cholesterol in intracellular membranes; also recorded: caused cholesterol accumulation
same,"ATP level, compound alone","[2]; H295R cells, 4 h",did not reduce the ATP levels
same,"cortisol secretion, compound alone","[5]; cortisol in medium, 4 h or time course",inhibited cortisol secretion
Cc1c(C)c2c(c(C)c1O)CC[C@@](C)(CCC[C@H](C)CCC[C@H](C)CCCC(C)C)O2 [α-tocopherol],effect on ATP depletion by ATR-101,[2]; [6],restored normal or nearly normal ATP levels
same,effect on ATP depletion by ATR-101,[2]; [7],restored the ATP level
same,effect on the inhibition of cortisol secretion by ATR-101,"[5]; 40 μM of the compound together with ATR-101, 4 h",neither compound prevented the inhibition of cortisol secretion
same,effect on the inhibition of cholesterol efflux by ATR-101,[4]; together with ATR-101,did not restore cholesterol efflux
rhodamine-123,ATP level in combination with ATR-101 versus separately,"[2]; H295R cells, 4 h",larger than additive reductions in the ATP levels
same,ATP level in combination with ATR-101 versus separately,"[2]; H295R cells, 4 h, listed as rhodamine 123",caused ATP depletion at concentrations that did not deplete ATP individually
same,fold lower concentration that reduced the ATP level in combination than required separately,"[2]; H295R cells, ATR-101 and rhodamine-123 in combination, 4 h",5 fold
